# In patent US11285144B2, “Use of CDK8 inhibitors to treat diseases of inflammation and autoimmunity” (THE BROAD INSTITUTE, INC., priority 2016, dated 2022):
# Entries after “also recorded” stand apart in the source; their conditions may differ.
# What was measured:
# [1] = system: naïve, splenic CD4+ T cells; assay: IL-10 production during ex vivo differentiation of Tregs; type: cell-based
# Procedure: FIG. 10—Cellular activities of CDK8 inhibitors. […] (b) Effect of CDK7 inhibitor THZ1 on viability and IL-10 production of R848-stimulated BMDCs (each point corresponds to mean±S.D.; n=4 biological replicates from 1 independent experiment). (c) IL-10 levels were quantified in tissue culture media generated during differentiation of naïve, splenic CD4+ T cells into Treg's in the presence of dCA (0.1 μM) or BRD6989 (5 μM) (each point correspond to mean±S.D.; n=3 biological replicates from 1 independent experiment; *, P<0.05; n.s., not significant using one-way ANOVA with Dunnett's post-test). Data from all panels is representative of at least 2 independent experiments.
# (§1) Pre-treatment with these CDK8/19 inhibitors recapitulated the IL-10 potentiating activity of BRD6989 in both BMDCs (FIG. 9b) along with human DCs derived from two independent donors in the context of R848 stimulation (FIGS. 9c and 10a).
# BMDMs = assay: TF-Seq pathway reporter assay in BMDMs; type: cell-based, mouse
# Procedure: To identify CDK8-responsive signaling pathways, an integrative genomics approach termed transcription factor sequencing (TF-Seq) was applied, in which consensus transcription factor binding sites drive expression of 58 reporter constructs bearing unique sequence tags (O'Connell et al., Cell Syst 2:323-34, 2016).
# Given that c-Jun's ability to activate transcription is tightly regulated by phosphorylation, it was determined whether CDK8 inhibition affects c-Jun phosphorylation in activated BMDCs.
# [2] = system: Cyclin B/CDK1, Cyclin A/CDK2, p35/CDK5, Cyclin H/CDK7, Cyclin T/CDK9; assay: Activity of other CDKs; type: biochemical; conditions: CDKs involved in cell cycle regulation
# Source text: (a) Binding of the indicated concentrations of BRD6989 to CDK8/Cyclin C complexes (each point corresponds to mean±S.D.; n=3 biological replicates from 1 independent experiment). (b-f) Effect of the indicated concentrations of BRD6989 on the activity of (b) Cyclin B/CDK1, (c) Cyclin A/CDK2, (d) p35/CDK5, (e) Cyclin H/CDK7, and (f) Cyclin T/CDK9 (each point corresponds to mean±S.D.; n=3 biological replicates from 1 independent experiment).
# Together, these kinase profiling, binding assay, enzyme inhibition and cell-based data identify the Mediator-associated kinases CDK8, and to a lesser degree CDK19, as molecular targets of BRD6989.
# R848-stimulated BMDCs = assay: Cytokine production by R848-stimulated BMDCs; type: cell-based, mouse
# Source text: (§2) The pyridinyl tetrahydroquinoline BRD6989 (10) emerged as a prioritized hit in the screen (FIG. 2a and Table 2). […] Thus, BRD6989 enhances IL-10 production in activated human and murine macrophages and dendritic cells by a mechanism that appears most pronounced following stimulation of toll-like receptors-7 (TLR7) and TLR8 by R848.
# as §1
# responder CD4+ T cells = assay: Treg suppression of responder CD4+ T cell proliferation in vitro; type: cell-based, mouse; conditions: Tregs generated in the presence of CDK8 inhibitor
# Procedure: FIG. 19—Suppressing T-cell proliferation in vitro. Treg cells are co-cultured at increasing dilutions with CFSE-labeled responder CD4+ T cells and their ability to suppress responder T cell proliferation upon anti-CD3/CD28 stimulation is assessed. Naive CD4+ T cells from Foxp3IRES-GFP mice were cultured under either optimal conditions for Treg differentiation (Treg Hi) or sub-optimal Treg differentiation conditions in the presence of BRD6989. The resulting GFP+ Treg cells were sorted by FACS. […] Assay was performed as described in eLife 2015; 4:e05920.
# Imbalances between anti-inflammatory (FoxP3+ Treg) and pro-inflammatory (TH1 and TH17) CD4+ T cell lineages can lead to pathogenic inflammations in a number of diseases contexts. Therapeutic strategies that enhance FoxP3+ Treg differentiation and/or function are being pursued for treatment of immune and inflammatory disorders. Treatment of naïve CD4+ T cells in the presence of multiple structural classes of CDK8 inhibitors can enhance differentiation into FoxP3+Tregs (FIG. 16).
# [3] = system: Zymosan A-stimulated BMDCs; assay: Viability of zymosan A-stimulated BMDCs; type: cell-based, mouse
# Source text: as §2
smiles,measurement,setting,value
CC1CCc2nc(N)c(C#N)c(-c3cccnc3)c2C1 (stereo not shown) [BRD6989],IL-10 production during Treg differentiation,[1],neither dCA nor BRD6989 dramatically increased IL-10 production
same,STAT1:STAT2 reporter activity,BMDMs; 2 hours after stimulation of BMDMs,suppressed induction of STAT1:STAT2 activity
same,NF-κB activation,BMDMs; all stimuli tested,suppressed NF-κB activation to a varying degree
same,inhibition of several other CDKs,[2],not the activity of several CDKs involved in cell cycle regulation; also recorded: does not inhibit
same,IL-10 production,R848-stimulated BMDCs,greater fold-increase in IL-10 production
same,suppression of CD4+ T cell proliferation by inhibitor-induced Tregs,responder CD4+ T cells,suppressed the proliferation of co-cultured responder CD4+ T cells in vitro at each dilution
same,cell viability,[3],only modestly reducing cell viability; also recorded: does not significantly reduce the viability
